Ki and EC50 data for 26 compounds are collected here from patent US11168089B2, “Fused pyrimidine derivatives as A2A / A2B inhibitors” (Incyte Corporation, priority 2018, dated 2021).

The target in one assay is Adenosine A2A receptor (Homo sapiens (Human), UniProt P29274). The assay can be described thus: A2A Tag-Lite HTRF assay. The format is binding. Particulars: Tag-Lite Adenosine A2A labeled cells, displacement of A2A Receptor Red antagonist fluorescent ligand 12.5 nM; read-out: A2A_Ki. From the text:
Example C. A2A Tag-Lite® HTRF Assay
The final concentration of DMSO was 1%.
A general note: Time-resolved FRET reads energy transfer from a long-lived donor to a nearby acceptor.

The target of assay [1] is human adenosine A2B receptor (Homo sapiens (Human), UniProt P29275). The assay can be described thus: Adenosine A2B Receptor Cyclic AMP GS Assay. The format is cell-based. The following applies: HEK-293 cells expressing human A2B receptor, agonist NECA 12 nM, cAMP accumulation; read-out: A2B_cAMP_EC50. The method, then:
Example B. Adenosine A2B Receptor Cyclic AMP GS Assay
Stably transfected HEK-293 cells expressing the human adenosine A2B receptor (Perkin Elmer) were maintained in MEM culture medium with 10% FBS and 100 μg/mL Geneticin (Life Technologies). 18 to 24 hours prior to assay, geneticin was removed from culture. The cisbio cAMP-GS Dynamic kit utilizing the FRET (Fluorescence Resonance Energy Transfer) technology was used to measure cAMP accumulation in the cells. Compounds of the present disclosure at an appropriate concentration were mixed with 10000 cells/well in white 96 well half area plates (Perkin Elmer) for 30 min at room temperature gently shaking. Agonist, NECA (R&D Technologies) at 12 nM was added to each well for 60 min at room temperature gently shaking. Detection reagents, d2-labeled cAMP (acceptor) and anti-cAMP cryptate (donor) were added to each well for 60 min at RT gently shaking. Plates were read on Pherastar (BMG Labtech), fluorescence ratio 665/620 was calculated and EC50 determination was performed by fitting the curve of percent of control versus the log of the compound concentration using GraphPad Prism.

Where only a bound is given, the exact number is not on record here.

Sequence of human adenosine A2B receptor (P29275 whole entry): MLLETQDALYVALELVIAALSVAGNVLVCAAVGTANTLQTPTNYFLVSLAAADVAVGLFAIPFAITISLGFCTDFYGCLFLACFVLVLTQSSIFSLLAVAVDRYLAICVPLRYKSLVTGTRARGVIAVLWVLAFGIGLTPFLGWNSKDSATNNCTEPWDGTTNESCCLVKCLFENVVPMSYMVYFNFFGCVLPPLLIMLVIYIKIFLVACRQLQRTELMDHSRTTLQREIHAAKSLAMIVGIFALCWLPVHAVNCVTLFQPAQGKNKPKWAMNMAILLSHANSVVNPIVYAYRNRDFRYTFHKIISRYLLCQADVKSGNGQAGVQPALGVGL
Sequence of Adenosine A2A receptor (P29274 whole entry): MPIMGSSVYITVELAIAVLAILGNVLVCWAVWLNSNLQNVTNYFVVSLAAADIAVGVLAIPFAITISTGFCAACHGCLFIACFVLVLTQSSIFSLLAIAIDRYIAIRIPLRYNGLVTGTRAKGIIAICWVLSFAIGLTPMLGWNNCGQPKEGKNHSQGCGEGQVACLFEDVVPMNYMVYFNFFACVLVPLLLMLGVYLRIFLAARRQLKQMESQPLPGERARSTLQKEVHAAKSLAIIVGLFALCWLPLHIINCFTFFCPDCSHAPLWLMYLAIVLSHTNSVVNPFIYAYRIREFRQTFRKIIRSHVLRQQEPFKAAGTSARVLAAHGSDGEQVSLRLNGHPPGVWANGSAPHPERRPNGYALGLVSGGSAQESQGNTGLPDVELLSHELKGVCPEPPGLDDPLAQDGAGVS

Take `CN1CCC(NCc2cccc(F)c2C(O)c2nc3cc(-c4cccc(C#N)c4F)nc(N)n3n2)C1=O` (single isomer, unassigned) [Example 16, 3-(5-Amino-2-((2-fluoro-6-(((1-methyl-2-oxopyrrolidin-3-yl)amino)methyl)phenyl)(hydroxy)methyl)-[1,2,4]triazolo[1,5-c]pyrimidin-7-yl)-2-fluorobenzonitrile]: the Ki on Adenosine A2A receptor was below 10 nM. Besides, the EC50 in assay [1] lay within 10 to 100 nM.

On to `N#Cc1cccc(-c2cc3nc(C(O)c4ccccc4)nn3c(N)n2)c1` (stereo not shown) [Example 1, 3-(5-Amino-2-(hydroxy(phenyl)methyl)-[1,2,4]triazolo[1,5-c]pyrimidin-7-yl)benzonitrile], for which the Ki at Adenosine A2A receptor is below 10 nM. Besides, the EC50 in assay [1] was below 10 nM.

Regarding `N#Cc1cccc(-c2cc3nc(Cc4ccccc4)nn3c(N)n2)c1` [Example 2, 3-(5-Amino-2-benzyl-[1,2,4]triazolo[1,5-c]pyrimidin-7-yl)benzonitrile], the Ki at Adenosine A2A receptor is below 10 nM. Further, the EC50 in assay [1] is below 10 nM.

As to `N#Cc1cccc(-c2cc3nc(Cc4ccccn4)nn3c(N)n2)c1` [Example 3, 3-(5-Amino-2-(pyridin-2-ylmethyl)-[1,2,4]triazolo[1,5-c]pyrimidin-7-yl)benzonitrile], at Adenosine A2A receptor, the Ki is below 10 nM. Also, in assay [1], the EC50 was below 10 nM.

For `N#Cc1cccc(-c2cc3nc(CC4CCCCC4)nn3c(N)n2)c1` [Example 4, 3-(5-Amino-2-(cyclohexylmethyl)-[1,2,4]triazolo[1,5-c]pyrimidin-7-yl)benzonitrile], the Ki at Adenosine A2A receptor is below 10 nM. The EC50 in assay [1] was 100 to 1000 nM.

Turning to `Cn1cc(-c2cccc(Cc3nc4cc(-c5cccc(C#N)c5)nc(N)n4n3)c2)cn1` [Example 5, 3-(5-Amino-2-(3-(1-methyl-1H-pyrazol-4-yl)benzyl)-[1,2,4]triazolo[1,5-c]pyrimidin-7-yl)benzonitrile], the Ki at Adenosine A2A receptor was below 10 nM. Also, in assay [1], the EC50 is 100 to 1000 nM.

On to `N#Cc1cccc(-c2cc3nc(CN4CCCC4=O)nn3c(N)n2)c1` [Example 6, 3-(5-Amino-2-((2-oxopyrrolidin-1-yl)methyl)-[1,2,4]triazolo[1,5-c]pyrimidin-7-yl)benzonitrile], for which the Ki at Adenosine A2A receptor was below 10 nM. For the same compound, the EC50 in assay [1] lay in the range of 100 to 1000 nM.

On to `Cn1ccnc1Cc1nc2cc(-c3cccc(C#N)c3)nc(N)n2n1` [Example 7, 3-(5-Amino-2-((1-methyl-1H-imidazol-2-yl)methyl)-[1,2,4]triazolo[1,5-c]pyrimidin-7-yl)benzonitrile], for which the Ki on Adenosine A2A receptor is below 10 nM. Also, in assay [1], the EC50 fell in the range of 10 to 100 nM.

On to `N#Cc1cccc(-c2cc3nc(C(N)c4ccccc4)nn3c(N)n2)c1` (stereo not shown) [Example 8, 3-(5-Amino-2-(amino(phenyl)methyl)-[1,2,4]triazolo[1,5-c]pyrimidin-7-yl)benzonitrile], for which the Ki at Adenosine A2A receptor is below 10 nM. The EC50 in assay [1] lay within 100 to 1000 nM.

For `N#Cc1cccc(-c2nc(N)n3nc(Cc4ccccc4)nc3c2CO)c1` [Example 9, 3-(5-Amino-2-benzyl-8-(hydroxymethyl)-[1,2,4]triazolo[1,5-c]pyrimidin-7-yl)benzonitrile], on Adenosine A2A receptor, the Ki is below 10 nM. In addition, in assay [1], the EC50 fell in the range of 10 to 100 nM.

On to `N#Cc1cccc(-c2cc3nc(Nc4ccccc4)nn3c(N)n2)c1` [Example 10, 3-(5-Amino-2-(phenylamino)-[1,2,4]triazolo[1,5-c]pyrimidin-7-yl)benzonitrile], for which the Ki at Adenosine A2A receptor was below 10 nM. In assay [1], the EC50 fell in the range of 100 to 1000 nM.

Consider `N#Cc1cccc(-c2cc3nc(Cc4ccccc4)cn3c(N)n2)c1` [Example 11, 3-(5-Amino-2-benzylimidazo[1,2-c]pyrimidin-7-yl)benzonitrile], for which the Ki at Adenosine A2A receptor is below 10 nM. Further, the EC50 in assay [1] was 10 to 100 nM.

`CCNC(=O)c1nc2cc(-c3cccc(C#N)c3)nc(N)n2n1` [Example 12, 5-Amino-7-(3-cyanophenyl)-N-ethyl-[1,2,4]triazolo[1,5-c]pyrimidine-2-carboxamide]: on Adenosine A2A receptor, the Ki is below 10 nM. In assay [1], the EC50 was above 1000 nM.

`Cc1c(C#N)cccc1-c1cc2nc(C(O)c3c(F)cccc3F)nn2c(N)n1` (stereo not shown) [Example 13, 3-(5-Amino-2-((2,6-difluorophenyl)(hydroxy)methyl)-[1,2,4]triazolo[1,5-c]pyrimidin-7-yl)-2-methylbenzonitrile]: the Ki on Adenosine A2A receptor is below 10 nM. Moreover, in assay [1], the EC50 fell in the range of 10 to 100 nM.

For `N#Cc1cccc(-c2cc3nc(C(O)c4c(F)cccc4F)nn3c(N)n2)c1F` (stereo not shown) [Example 14, 3-(5-Amino-2-((2,6-difluorophenyl)(hydroxy)methyl)-[1,2,4]triazolo[1,5-c]pyrimidin-7-yl)-2-fluorobenzonitrile], the Ki at Adenosine A2A receptor is below 10 nM. The EC50 in assay [1] is below 10 nM.

As to `N#Cc1cccc(-c2nc(N)n3nc(C(O)c4c(F)cccc4F)nc3c2C#N)c1F` (stereo not shown) [Example 15, 5-Amino-7-(3-cyano-2-fluorophenyl)-2-((2,6-difluorophenyl)(hydroxy)methyl)-[1,2,4]triazolo[1,5-c]pyrimidine-8-carbonitrile], at Adenosine A2A receptor, the Ki was below 10 nM. Further, the EC50 in assay [1] was below 10 nM.

Turning to `CN1CCC2(CN(Cc3cccc(F)c3C(O)c3nc4cc(-c5cccc(C#N)c5F)nc(N)n4n3)C2)C1=O` (stereo not shown) [Example 17, 3-(5-Amino-2-((2-fluoro-6-((6-methyl-5-oxo-2,6-diazaspiro[3.4]octan-2-yl)methyl)phenyl)(hydroxy)methyl)-[1,2,4]triazolo[1,5-c]pyrimidin-7-yl)-2-fluorobenzonitrile], at Adenosine A2A receptor, the Ki was below 10 nM. The EC50 in assay [1] was in the range of 10 to 100 nM.

As for `CCN(Cc1cccc(F)c1C(O)c1nc2cc(-c3cccc(C#N)c3F)nc(N)n2n1)[C@H]1CCNC1=O` (stereo partly drawn) [Example 18, 3-(5-Amino-2-((2-((ethyl((S)-2-oxopyrrolidin-3-yl)amino)methyl)-6-fluorophenyl)(hydroxy)methyl)-[1,2,4]triazolo[1,5-c]pyrimidin-7-yl)-2-fluorobenzonitrile], the Ki on Adenosine A2A receptor was below 10 nM. For the same compound, the EC50 in assay [1] is below 10 nM.

`N#Cc1cccc(-c2cc3nc(Cc4c(F)cccc4CNC4CCN(CC(=O)O)C4=O)nn3c(N)n2)c1F` (stereo not shown) [Example 19, 2-(3-((2-((5-Amino-7-(3-cyano-2-fluorophenyl)-[1,2,4]triazolo[1,5-c]pyrimidin-2-yl)methyl)-3-fluorobenzyl)amino)-2-oxopyrrolidin-1-yl)acetic acid]: the Ki on Adenosine A2A receptor is below 10 nM. For the same compound, the EC50 in assay [1] was in the range of 10 to 100 nM.

For `N#Cc1cccc(-c2cc3nc(Cc4c(F)cccc4CN[C@@H]4CCOC4=O)nn3c(N)n2)c1F` [Example 20, (R)-3-(5-Amino-2-(2-fluoro-6-(((2-oxotetrahydrofuran-3-yl)amino)methyl)benzyl)-[1,2,4]triazolo[1,5-c]pyrimidin-7-yl)-2-fluorobenzonitrile], the Ki on Adenosine A2A receptor was below 10 nM. Also, the EC50 in assay [1] is below 10 nM.

On to `N#Cc1cccc(-c2cc3nc(Cc4c(F)cccc4CN[C@@H]4CCNC4=O)nn3c(N)n2)c1F` [Example 21, (R)-3-(5-Amino-2-(2-fluoro-6-(((2-oxopyrrolidin-3-yl)amino)methyl)benzyl)-[1,2,4]triazolo[1,5-c]pyrimidin-7-yl)-2-fluorobenzonitrile], for which, at Adenosine A2A receptor, the Ki is below 10 nM. Besides, the EC50 in assay [1] was below 10 nM.

In the case of `N#Cc1cccc(-c2cc3nc(Cc4c(F)cccc4CN[C@H]4CCNC4=O)nn3c(N)n2)c1F` [Example 22, (S)-3-(5-Amino-2-(2-fluoro-6-(((2-oxopyrrolidin-3-yl)amino)methyl)benzyl)-[1,2,4]triazolo[1,5-c]pyrimidin-7-yl)-2-fluorobenzonitrile], on Adenosine A2A receptor, the Ki was below 10 nM. Also, the EC50 in assay [1] was below 10 nM.

Take `N#Cc1cccc(-c2cc3nc(Cc4c(F)cccc4CN4CCC(c5nn[nH]n5)C4)nn3c(N)n2)c1F` (stereo not shown) [Example 23, 3-(2-(2-((3-(2H-Tetrazol-5-yl)pyrrolidin-1-yl)methyl)-6-fluorobenzyl)-5-amino-[1,2,4]triazolo[1,5-c]pyrimidin-7-yl)-2-fluorobenzonitrile]: the Ki on Adenosine A2A receptor is below 10 nM. The EC50 in assay [1] was 10 to 100 nM.

In the case of `CCN1CCC(NCc2cccc(F)c2Cc2nc3cc(-c4cccc(C#N)c4F)nc(N)n3n2)C1=O` (stereo not shown) [Example 24, 3-(5-Amino-2-(2-(((1-ethyl-2-oxopyrrolidin-3-yl)amino)methyl)-6-fluorobenzyl)-[1,2,4]triazolo[1,5-c]pyrimidin-7-yl)-2-fluorobenzonitrile], the Ki on Adenosine A2A receptor was below 10 nM. For the same compound, the EC50 in assay [1] lay in the range of 10 to 100 nM.

As for `CC(=O)N[C@H]1CCN(Cc2cccc(F)c2Cc2nc3cc(-c4cccc(C#N)c4F)nc(N)n3n2)C1` [Example 25, (S)—N-(1-(2-((5-Amino-7-(3-cyano-2-fluorophenyl)-[1,2,4]triazolo[1,5-c]pyrimidin-2-yl)methyl)-3-fluorobenzyl)pyrrolidin-3-yl)acetamide], the Ki on Adenosine A2A receptor is below 10 nM. In addition, the EC50 in assay [1] lay within 10 to 100 nM.

For the compound `N#Cc1cccc(-c2cc3nc(Cc4c(F)cccc4CN4CCC[C@H]4c4nn[nH]n4)nn3c(N)n2)c1F` [Example 26, (S)-3-(2-(2-((2-(2H-Tetrazol-5-yl)pyrrolidin-1-yl)methyl)-6-fluorobenzyl)-5-amino-[1,2,4]triazolo[1,5-c]pyrimidin-7-yl)-2-fluorobenzonitrile], on Adenosine A2A receptor, the Ki is below 10 nM. Further, in assay [1], the EC50 was below 10 nM.
